Paper PMC4835244 (Stem Cells Translational Medicine, 2016)
Structures can show the parent of a compound that is named as a salt. Where two headings read alike, the source gives them in different places. Blank lines part the entries; values can stand above or below the compound they belong to.

Tests used:
[1] = test system: HepG2 cells
[2] = test system: p53; details: ref PubChem AID 720552; cited from earlier work
[3] = test system: ARE/Nrf2 pathway (CellSensor ARE-bla HepG2 cell line); assay: ARE-bla β-lactamase reporter gene assay; format: cell-based; details: HepG2 cells
[4] = test system: activator protein 1 (AP1); details: assays previously performed; cited from earlier work
[5] = test system: heat shock element (HSE); details: ref PubChem AID 743228; cited from earlier work
[6] = in vitro; details: human

SMILES: OC[C@H]1O[C@H]([S-])[C@H](O)[C@@H](O)[C@@H]1O.[Au+] [Aurothioglucose]
Cytotoxicity to HepG2 cells (CTG) [1]: toxic at the highest concentrations
Activity in β-lactamase reporter gene assay for p53 [2]: not active
Activation of ARE-β-lactamase expression [3]: directly activated ARE-β-lactamase expression
Shape of activity in the ARE-bla assay [3]: bell shaped

SMILES: CC(C)(C)c1ccc(C(=O)CCCN2CCC(OC(c3ccccc3)c3ccccc3)CC2)cc1 [Ebastine]
Cytotoxicity to HepG2 cells (CTG) ([1]; human, 18 h): cytotoxic to HepG2 cells

SMILES: c1ccc2c(c1)OCC(C1=NCCN1)O2 (centres unmarked) [Idazoxan hydrochloride]
Activity in β-lactamase reporter gene assay for AP1 [4]: not active in any of these assays
Activity in β-lactamase reporter gene assay for HSE [5]: not active in any of these assays
Cytotoxicity to HepG2 cells (CTG) ([1]; human, 18 h): not toxic to HepG2 cells at the concentrations tested
Activity in β-lactamase reporter gene assay for p53 [2]: not active in any of these assays
Activation of ARE-β-lactamase expression [3]: directly activated ARE-β-lactamase expression
Shape of activity in the ARE-bla assay [3]: simple increase in ARE activation

SMILES: O=C1c2ccccc2C(=O)c2c(NCCc3ccc(O)cc3)ccc(NCCc3ccc(O)cc3)c21 [JFD00244]
Activation of ARE-β-lactamase expression [3]: active in only one repetition

SMILES: Cc1ccccc1/C=C/C1=NCCN1 [Metrazoline oxalate]
Cytotoxicity to HepG2 cells (CTG) ([1]; human, 18 h): not toxic to HepG2 cells at the concentrations tested
Activation of ARE-β-lactamase expression [3]: directly activated ARE-β-lactamase expression
Shape of activity in the ARE-bla assay [3]: simple increase in ARE activation

SMILES: COc1c(C)c2c(c(O)c1C/C=C(\C)CCC(=O)O)C(=O)OC2 [Mycophenolic acid]
Activation of ARE-β-lactamase expression [3]: active in only one repetition

SMILES: COc1cccc2c1C(=O)c1c(O)c3c(c(O)c1C2=O)C[C@@](O)(C(=O)CO)C[C@@H]3O[C@H]1C[C@H](N2CCO[C@H](OC)C2)[C@H](O)[C@H](C)O1 [Nemorubicin]
Cytotoxicity to HepG2 cells (CTG) ([1]; human, 18 h): cytotoxic to HepG2 cells

SMILES: O=C1OC(=O)[C@H]2[C@@H]1[C@@H]1CC[C@H]2O1 [Norcantharidin]
Activation of ARE-β-lactamase expression [3]: active in only one repetition

IC50 at 24 h [6]: 6.7 µM
SMILES: CC(C)(C)c1ccc(C(O)CCCN2CCC(C(O)(c3ccccc3)c3ccccc3)CC2)cc1 (centres unmarked) [Terfenadine]

SMILES: C/C=C(/C)C(=O)O[C@H]1C(C)=C2[C@H]([C@@H]1OC(=O)CCCCCCC)[C@@](C)(OC(C)=O)C[C@H](OC(=O)CCC)[C@@]1(O)[C@H]2OC(=O)[C@@]1(C)O [Thapsigargin]
Cytotoxicity to HepG2 cells (CTG) ([1]; human, 18 h): cytotoxic to HepG2 cells
